Reference: patent publication US20100056524A1, “Compound” (priority 2008, published 2010)
pIC50: −log10 of the molar value. Where a name gives a salt, the structure may show the parent alone. Values belong to the compound of their own block, whether it stands above or below them.

Molecular target: T1, TBK1 (Homo sapiens, UniProt Q9UHD2)
T1 construct: All protein kinases were of human origin and encoded full length proteins, unless indicated otherwise; His6; made in house; host or cells: insect Sf21 cells
T1 sequence (Q9UHD2 1-729): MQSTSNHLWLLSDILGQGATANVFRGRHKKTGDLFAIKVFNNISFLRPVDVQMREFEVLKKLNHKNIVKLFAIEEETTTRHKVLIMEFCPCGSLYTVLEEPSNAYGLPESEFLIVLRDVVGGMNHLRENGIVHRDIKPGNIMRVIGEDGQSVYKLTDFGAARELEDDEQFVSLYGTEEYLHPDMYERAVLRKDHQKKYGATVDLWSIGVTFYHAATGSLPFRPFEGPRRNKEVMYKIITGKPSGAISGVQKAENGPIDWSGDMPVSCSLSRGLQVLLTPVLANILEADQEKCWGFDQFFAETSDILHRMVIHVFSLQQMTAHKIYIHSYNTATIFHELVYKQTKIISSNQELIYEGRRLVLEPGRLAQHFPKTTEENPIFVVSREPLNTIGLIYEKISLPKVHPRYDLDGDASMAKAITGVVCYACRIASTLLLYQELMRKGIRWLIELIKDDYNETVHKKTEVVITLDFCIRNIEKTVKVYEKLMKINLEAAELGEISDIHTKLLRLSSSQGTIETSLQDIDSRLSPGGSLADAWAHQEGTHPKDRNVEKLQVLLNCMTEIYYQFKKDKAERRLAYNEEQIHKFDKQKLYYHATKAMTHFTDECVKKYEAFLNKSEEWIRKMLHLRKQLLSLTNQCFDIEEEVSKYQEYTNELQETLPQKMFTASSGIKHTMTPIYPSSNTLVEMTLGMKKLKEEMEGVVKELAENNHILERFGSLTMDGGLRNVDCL
Assay: TBK1 protein kinase assay ([γ-33P]ATP, P81 filterplates)
Type: biochemical
Details: 50 μM ATP; read-out: Potency (TBK1 IC50 potency score)
In short: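 Human TBK1 assayed for 30 min with peptide substrate (300 μM), 50 μM [γ-33P]ATP and 10 mM magnesium acetate in 50 mM Tris/HCl pH 7.5, 0.1 mM EGTA, 0.1% 2-mercaptoethanol. Stopped with orthophosphoric acid and counted on P81 filters. IC50 from 10 compound concentrations.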

SMILES: O=C(NCCCNc1nc(Nc2cccnc2)ncc1C1CC1)C1CCCC1 [Example 66, Cyclopentanecarboxylic acid {3-[5-cyclopropyl-2-(pyridin-3-ylamino)-pyrimidin-4-ylamino]-propyl}-amide]
pIC50: > 7.00

SMILES: O=C(NCCCNc1nc(Nc2ccc(-c3cnco3)nc2)ncc1C1CC1)C1CCC1 [Example 185, Cyclobutanecarboxylic acid {3-[5-cyclopropyl-2-(6-oxazol-5-yl-pyridin-3-ylamino)-pyrimidin-4-ylamino]-propyl}-amide]
pIC50: > 7.00

SMILES: O=C(NCCCNc1nc(Nc2cccc(F)c2)ncc1C1CC1)c1ccco1 [Example 5, Furan-2-carboxylic acid{3-[5-cyclopropyl-2-(3-fluoro-phenylamino)-pyrimidin-4-ylamino]-propyl}-amide trifluoroacetic acid salt]
pIC50: 6.00 to 7.00

SMILES: CN(C)[C@H]1CCN(Cc2ccc(Nc3ncc(C4CC4)c(NCCCNC(=O)C4CCC4)n3)cn2)C1 [Example 146, Cyclobutanecarboxylic acid (3-{5-cyclopropyl-2-[6-((S)-3-dimethylamino-pyrrolidin-1-ylmethyl)-pyridin-3-ylamino]-pyrimidin-4-ylamino}-propyl)-amide]
pIC50: > 7.00

SMILES: CN1CCc2cc(Nc3ncc(C4CC4)c(NCCCNC(=O)C4CCC4)n3)ccc2C1 [Example 199, Cyclobutanecarboxylic acid {3-[5-cyclopropyl-2-(2-methyl-1,2,3,4-tetrahydro-isoquinolin-6-ylamino)-pyrimidin-4-ylamino]-propyl}-amide]
pIC50: > 7.00

SMILES: O=C(NCCCNc1nc(Nc2ccc(-c3cn[nH]c3)nc2)ncc1C1CC1)C1CCC1 [Example 118, Cyclobutanecarboxylic acid (3-{5-cyclopropyl-2-[6-(1H-pyrazol-4-yl)-pyridin-3-ylamino]-pyrimidin-4-ylamino}-propyl)-amide]
pIC50: > 7.00

SMILES: CN(C)CC(=O)NCCCNc1nc(Nc2cccc(F)c2)ncc1C1CC1 [Example 4, N-{3-[5-Cyclopropyl-2-(3-fluoro-phenylamino)-pyrimidin-4-ylamino]-propyl}-2-dimethylamino-acetamide trifluoroacetic acid salt]
pIC50: 6.00 to 7.00

SMILES: O=C(NCCCNc1nc(Nc2ccc(F)cc2)ncc1C1CC1)c1cccs1 [Example 58, Thiophene-2-carboxylic acid {3-[5-cyclopropyl-2-(4-fluoro-phenylamino)-pyrimidin-4-ylamino]-propyl}-amide]
pIC50: 6.00 to 7.00

SMILES: O=C(NCCCNc1nc(Nc2cnn(CCN3CCOCC3)c2)ncc1C1CC1)C1CCC1 [Example 155, Cyclobutanecarboxylic acid (3-{5-cyclopropyl-2-[1-(2-morpholin-4-yl-ethyl)-1H-pyrazol-4-ylamino]-pyrimidin-4-ylamino}-propyl)-amide]
pIC50: > 7.00

SMILES: O=C(NCCCNc1nc(Nc2ccc3c(cnn3C3CC3)c2)ncc1C1CC1)C1CCC1 [Example 210, Cyclobutanecarboxylicacid{3-[5-cyclopropyl-2-(1-cyclopropyl-1H-indazol-5-ylamino)-pyrimidin-4-ylamino]-propyl}-amide]
pIC50: > 7.00

SMILES: Cn1cccc1C(=O)NCCCNc1nc(Nc2cccc(F)c2)ncc1C1CC1 [Example 16, 1-Methyl-1H-pyrrole-2-carboxylic acid {3-[5-cyclopropyl-2-(3-fluoro-phenylamino)-pyrimidin-4-ylamino]-propyl}-amide]
pIC50: 6.00 to 7.00

SMILES: CCCC(=O)NCCCNc1nc(Nc2cccc(F)c2)ncc1C1CC1 [Example 108]
pIC50: > 7.00

SMILES: Cn1cnc2cc(Nc3ncc(C4CC4)c(NCCCNC(=O)C4CCC4)n3)cnc21 [Example 198, Cyclobutanecarboxylic acid {3-[5-cyclopropyl-2-(3-methyl-3H-imidazo[4,5-b]pyridin-6-ylamino)-pyrimidin-4-ylamino]-propyl}-amide]
pIC50: > 7.00

SMILES: O=C(NCCCNc1nc(Nc2cnn(C3CCC3)c2)ncc1C1CC1)C1CCC1 [Example 202, Cyclobutanecarboxylic acid {3-[2-(1-cyclobutyl-1H-pyrazol-4-ylamino)-5-cyclopropyl-pyrimidin-4-ylamino]-propyl}-amide]
pIC50: > 7.00

SMILES: CN1CCN(C(=O)c2cccc(Nc3ncc(C4CC4)c(NCCCNC(=O)c4cccs4)n3)c2)CC1 [Example 45, Thiophene-2-carboxylic acid (3-{5-cyclopropyl-2-[3-(4-methyl-piperazine-1-carbonyl)-phenylamino]-pyrimidin-4-ylamino}-propyl)-amide]
pIC50: 6.00 to 7.00

SMILES: O=C(NCCCNc1nc(Nc2cccc(Cn3cncn3)c2)ncc1C1CC1)C1CCC1 [Example 83, Cyclobutanecarboxylic acid {3-[5-cyclopropyl-2-(3-1,2,4-triazol-1-ylmethyl-phenylamino)-pyrimidin-4-ylamino]-propyl}-amide]
pIC50: > 7.00

SMILES: O=C(NCCCNc1nc(Nc2ccc3ncsc3c2)ncc1C1CC1)c1cccs1 [Example 37, Thiophene-2-carboxylic acid {3-[2-(benzothiazol-6-ylamino)-5-cyclopropyl-pyrimidin-4-ylamino]-propyl}-amide. Hydrochloride salt]
pIC50: > 7.00

SMILES: Cn1ccnc1C(=O)NCCCNc1nc(Nc2cccc(F)c2)ncc1C1CC1 [Example 18, 1-Methyl-1H-imidazole-2-carboxylic acid {3-[5-cyclopropyl-2-(3-fluoro-phenylamino)-pyrimidin-4-ylamino]-propyl}-amide]
pIC50: 5.00 to 6.00

SMILES: Cc1ccc(Nc2ncc(C3CC3)c(NCCCNC(=O)c3cccs3)n2)cn1 [Example 30, Thiophene-2-carboxylic acid {3-[5-cyclopropyl-2-(6-methyl-pyridin-3-ylamino)-pyrimidin-4-ylamino]-propyl}-amide]
pIC50: 5.00 to 6.00

Further lines, results first:

pIC50: > 7.00
SMILES: O=C(NCCCNc1nc(Nc2ccc3nc[nH]c3c2)ncc1C1CC1)C1CCC1 [Example 96, Cyclobutanecarboxylic acid {3-[2-(3H-benzimidazol-5-ylamino)-5-cyclopropyl-pyrimidin-4-ylamino]-propyl}-amide]

pIC50: 6.00 to 7.00
SMILES: Cc1nc2cc(Nc3ncc(C4CC4)c(NCCCNC(=O)c4cccs4)n3)ccc2s1 [Example 60, Thiophene-2-carboxylic acid {3-[5-cyclopropyl-2-(2-methyl-benzothiazol-5-ylamino)-pyrimidin-4-ylamino]-propyl}-amide]

pIC50: 5.00 to 6.00
SMILES: O=C(NCCCNc1nc(Nc2ccc3cnccc3c2)ncc1C1CC1)c1cccs1 [Example 53, Thiophene-2-carboxylic acid {3-[5-cyclopropyl-2-(isoquinolin-6-ylamino)-pyrimidin-4-ylamino]-propyl}-amide]

pIC50: > 7.00
SMILES: O=C(NCCCNc1nc(Nc2ccc(N3CCCC3=O)cc2)ncc1C1CC1)C1CCC1 [Example 184, Cyclobutanecarboxylic acid (3-{5-cyclopropyl-2-[4-(2-oxo-pyrrolidin-1-yl)-phenylamino]-pyrimidin-4-ylamino}-propyl)-amide. xHCl]

pIC50: 6.00 to 7.00
SMILES: O=C(NCCCNc1nc(Nc2cccc(F)c2)ncc1C1CC1)C1CCCO1 (centres unmarked) [Example 15, Tetrahydro-furan-2-carboxylic acid {3-[5-cyclopropyl-2-(3-fluoro-phenylamino)-pyrimidin-4-ylamino]-propyl}-amide]

pIC50: > 7.00
SMILES: CS(=O)(=O)Nc1cccc(Nc2ncc(C3CC3)c(NCCCNC(=O)c3cccs3)n2)c1 [Example 32, Thiophene-2-carboxylic acid {3-[5-cyclopropyl-2-(3-methanesulfonylamino-phenylamino)-pyrimidin-4-ylamino]-propyl}-amide trifluoroacetic acid salt]

pIC50: > 7.00
SMILES: CN(CCN1CCOCC1)C(=O)c1cccc(Nc2ncc(C3CC3)c(NCCCNC(=O)C3CCC3)n2)c1 [Example 80, 3-{4-[3-(Cyclobutanecarbonyl-amino)-propylamino]-5-cyclopropyl-pyrimidin-2-ylamino}-N-methyl-N-(2-morpholin-4-yl-ethyl)-benzamide]

pIC50: > 7.00
SMILES: O=C(NCCCNc1nc(Nc2ccc(CN3CCCC(F)(F)C3)nc2)ncc1C1CC1)C1CCC1 [Example 157, Cyclobutanecarboxylic acid (3-{5-cyclopropyl-2-[6-(3,3-difluoro-piperidin-1-ylmethyl)-pyridin-3-ylamino]-pyrimidin-4-ylamino}-propyl)-amide]

pIC50: > 7.00
SMILES: O=C(NCCCNc1nc(Nc2ccc3ncnn3c2)ncc1C1CC1)C1CCC1 [Example 189, Cyclobutanecarboxylic acid {3-[5-cyclopropyl-2-([1,2,4]triazolo[1,5-a]pyridin-6-ylamino)-pyrimidin-4-ylamino]-propyl}-amide]

pIC50: 6.00 to 7.00
SMILES: O=C1CCCN1CCCNc1nc(Nc2cccc(F)c2)ncc1C1CC1 [Example 38, 1-{3-[5-Cyclopropyl-2-(3-fluoro-phenylamino)-pyrimidin-4-ylamino]-propyl}-pyrrolidin-2-one]
